What follows are molecules tested against T1, PAR4 (Homo sapiens, UniProt Q96RI0) (assay: PAR4 FLIPR assay (antagonism of agonist peptide-induced calcium mobilization)).
T1 construct: expressed in transfected cells; host or cells: HEK293 PAR4 Clone 1.2A (BMS Arctic ID 383940)
T1 sequence (Q96RI0 18-385): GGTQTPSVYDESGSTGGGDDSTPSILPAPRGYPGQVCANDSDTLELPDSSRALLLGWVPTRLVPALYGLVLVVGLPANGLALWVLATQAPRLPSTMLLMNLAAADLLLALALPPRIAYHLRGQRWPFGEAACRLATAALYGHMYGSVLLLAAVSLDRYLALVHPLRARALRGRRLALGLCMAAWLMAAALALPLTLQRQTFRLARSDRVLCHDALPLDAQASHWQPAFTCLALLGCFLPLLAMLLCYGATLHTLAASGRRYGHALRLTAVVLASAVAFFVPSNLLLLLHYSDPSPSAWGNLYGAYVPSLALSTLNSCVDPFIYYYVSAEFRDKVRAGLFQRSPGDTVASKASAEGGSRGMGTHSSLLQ
Format: cell-based
In short: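 Antagonism was taken as block of calcium mobilization evoked by the agonist peptide H-Ala-Phe(4-F)-Pro-Gly-Trp-Leu-Val-Lys-Asn-[…]-NH2, added after 30 min room-temperature compound preincubation in dye-loaded PAR4-transfected HEK293 cells (endogenous PAR1). Fluorescence was read on FDSS, with compound addition alone used as the agonist counter-screen; values come from 11-point concentration-response curves.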
Work on `COc1cnc2c(-c3nc4c(C)cc5c(c4s3)OC[C@H](COC(=O)Nc3ccc4ncsc4c3)O5)cc(C)cc2n1` [Example 50, (R)-(2-(2-methoxy-7-methylquinoxalin-5-yl)-4-methyl-7,8-dihydro-[1,4]dioxino[2′,3′:3,4]benzo[1,2-d]thiazol-7-yl)methyl benzo[d]thiazol-6-ylcarbamate] yielded an IC50 of 140 nM.
Molecule `COc1cnc2c(-c3nc4c(C)cc5c(c4s3)OC[C@H](COC(=O)Nc3cncc(C#N)c3)O5)cc(C)cc2n1` [Example 51, (R)-(2-(2-methoxy-7-methylquinoxalin-5-yl)-4-methyl-7,8-dihydro-[1,4]dioxino[2′,3′:3,4]benzo[1,2-d]thiazol-7-yl)methyl (5-cyanopyridin-3-yl)carbamate] has an IC50 of 16 nM.
`COc1cnc2c(-c3nc4c(C)cc5c(c4s3)OC[C@H](COC(=O)Nc3ccc(-c4cccs4)nc3)O5)cc(C)cc2n1` [Example 53, (R)-(2-(2-methoxy-7-methylquinoxalin-5-yl)-4-methyl-7,8-dihydro-[1,4]dioxino [2′,3′:3,4]benzo[1,2-d]thiazol-7-yl)methyl (6-(thiophen-2-yl)pyridin-3-yl)carbamate] showed an IC50 of 54 nM.
With `COc1cnc2c(-c3nc4c(C)cc5c(c4s3)OC[C@H](COC(=O)Nc3cnc4c(c3)ncn4C)O5)cc(C)cc2n1` [Example 54, (R)-(2-(2-methoxy-7-methylquinoxalin-5-yl)-4-methyl-7,8-dihydro-[1,4]dioxino[2′,3′:3,4]benzo[1,2-d]thiazol-7-yl)methyl (3-methyl-3H-imidazo[4,5-b]pyridin-6-yl)carbamate] the IC50 was 1.6 nM.
With `COc1cnc2c(-c3nc4c(C)cc5c(c4s3)OC[C@H](COC(=O)Nc3ccc(-n4cnc(C)n4)nc3)O5)cc(C)cc2n1` [Example 55, (R)-(2-(2-methoxy-7-methylquinoxalin-5-yl)-4-methyl-7,8-dihydro-[1,4]dioxino [2′,3′:3,4]benzo[1,2-d]thiazol-7-yl)methyl (6-(3-methyl-1H-1,2,4-triazol-1-yl)pyridin-3-yl)carbamate] the IC50 was 21 nM.
`COc1cnc2c(-c3nc4c(C)cc5c(c4s3)OC[C@H](COC(=O)Nc3ccc(C)nc3)O5)cc(C)cc2n1` [Example 56, (R)-(2-(2-methoxy-7-methylquinoxalin-5-yl)-4-methyl-7,8-dihydro-[1,4]dioxino[2′,3′:3,4]benzo[1,2-d]thiazol-7-yl)methyl (6-methylpyridin-3-yl)carbamate] showed an IC50 of 1 nM.
With `COc1cnc2c(-c3nc4c(C)cc5c(c4s3)OC[C@H](COC(=O)Nc3cncc(C)c3)O5)cc(C)cc2n1` [Example 57, (R)-(2-(2-methoxy-7-methylquinoxalin-5-yl)-4-methyl-7,8-dihydro-[1,4]dioxino[2′,3′:3,4]benzo[1,2-d]thiazol-7-yl)methyl (5-methylpyridin-3-yl)carbamate] the IC50 was 9.7 nM.
In the case of `COc1cnc2c(-c3nc4c(Cl)cc5c(c4s3)OC[C@H](COC(=O)Nc3cnc(Cl)nc3)O5)cc(C)cc2n1` [Example 58, (R)-(4-chloro-2-(2-methoxy-7-methylquinoxalin-5-yl)-7,8-dihydro-[1,4]dioxino[2′,3′:3,4]benzo[1,2-d]thiazol-7-yl)methyl (2-chloropyrimidin-5-yl)carbamate], the IC50 is reported as 8.8 nM.
`COc1cnc2c(-c3nc4c(C)cc5c(c4s3)OC[C@H](COC(=O)Nc3cnc(Cl)nc3)O5)cc(C)cc2n1` [Example 59, (R)-(2-(2-methoxy-7-methylquinoxalin-5-yl)-4-methyl-7,8-dihydro-[1,4]dioxino[2′,3′:3,4]benzo[1,2-d]thiazol-7-yl)methyl (2-chloropyrimidin-5-yl)carbamate] showed an IC50 of 8.3 nM.
Molecule `COc1cnc2c(-c3nc4c(Cl)cc5c(c4s3)OC[C@H](COC(=O)Nc3cnc(C)c(C)c3)O5)cc(C)cc2n1` [Example 60, (R)-(4-chloro-2-(2-methoxy-7-methylquinoxalin-5-yl)-7,8-dihydro-[1,4]dioxino[2′,3′:3,4]benzo[1,2-d]thiazol-7-yl)methyl (5,6-dimethylpyridin-3-yl) carbamate] has an IC50 of 6.9 nM.
Work on `COc1cnc2c(-c3nc4c(C)cc5c(c4s3)OC[C@H](COC(=O)Nc3cnc(F)c(C)c3)O5)cc(C)cc2n1` [Example 61, (R)-(2-(2-methoxy-7-methylquinoxalin-5-yl)-4-methyl-7,8-dihydro-[1,4]dioxino [2′,3′:3,4]benzo[1,2-d]thiazol-7-yl)methyl (6-fluoro-5-methylpyridin-3-yl)carbamate] yielded an IC50 of 23 nM.
For `COc1cnc2c(-c3nc4c(Cl)cc5c(c4s3)OC[C@H](COC(=O)Nc3ccc(C)nc3)O5)cc(C)cc2n1` [Example 62], the IC50 was 1 nM.
`COc1cnc2c(-c3nc4c(Cl)cc5c(c4s3)OC[C@H](COC(=O)Nc3cncc(C)c3)O5)cc(C)cc2n1` [Example 63] gave an IC50 of 4.3 nM.
With `COc1cnc2c(-c3nc4c(Cl)cc5c(c4s3)OC[C@H](COC(=O)Nc3cnc(F)c(C)c3)O5)cc(C)cc2n1` [Example 64, (R)-(4-chloro-2-(2-methoxy-7-methylquinoxalin-5-yl)-7,8-dihydro-[1,4]dioxino [2′,3′:3,4]benzo[1,2-d]thiazol-7-yl)methyl (6-fluoro-5-methylpyridin-3-yl)carbamate] the IC50 was 2.5 nM.
Work on `COc1cnc2c(-c3nc4c(Cl)cc5c(c4s3)OC[C@H](COC(=O)Nc3ccc(N(C)C)nc3)O5)cc(C)cc2n1` [Example 65, (R)-(4-chloro-2-(2-methoxy-7-methylquinoxalin-5-yl)-7,8-dihydro-[1,4]dioxino [2′,3′:3,4]benzo[1,2-d]thiazol-7-yl)methyl (6-(dimethylamino)pyridin-3-yl)carbamate] yielded an IC50 of 16 nM.
`COc1cnc2c(-c3nc4c(Cl)cc5c(c4s3)OC[C@H](COC(=O)Nc3ccc4[nH]c(=O)oc4c3)O5)cc(C)cc2n1` [Example 66, (R)-(4-chloro-2-(2-methoxy-7-methylquinoxalin-5-yl)-7,8-dihydro-[1,4]dioxino[2′,3′:3,4]benzo[1,2-d]thiazol-7-yl)methyl (2-oxo-2,3-dihydrobenzo[d]oxazol-6-yl)carbamate] showed an IC50 of 1.5 nM.
Work on `COc1cnc2c(-c3nc4c(Cl)cc5c(c4s3)OC[C@H](COC(=O)Nc3cnc4c(c3)ncn4C)O5)cc(C)cc2n1` [Example 67, (R)-(4-chloro-2-(2-methoxy-7-methylquinoxalin-5-yl)-7,8-dihydro-[1,4]dioxino[2′,3′:3,4]benzo[1,2-d]thiazol-7-yl)methyl (3-methyl-3H-imidazo[4,5-b]pyridin-6-yl)carbamate] yielded an IC50 of 0.6 nM.
`COc1ccc(NC(=O)OC[C@H]2COc3c(cc(F)c4nc(-c5cc(C)cc6nc(OC)cnc56)sc34)O2)cn1` [Example 68, (R)-(4-fluoro-2-(2-methoxy-7-methylquinoxalin-5-yl)-7,8-dihydro-[1,4]dioxino[2′,3′:3,4]benzo[1,2-d]thiazol-7-yl)methyl (6-methoxypyridin-3-yl)carbamate] showed an IC50 of 1 nM.
`COc1cnc2c(-c3nc4c(Cl)cc5c(c4s3)OC[C@H](COC(=O)Nc3ccc(-n4cnc(C)n4)nc3)O5)cc(C)cc2n1` [Example 69, (R)-(4-chloro-2-(2-methoxy-7-methylquinoxalin-5-yl)-7,8-dihydro-[1,4]dioxino[2′,3′:3,4]benzo[1,2-d]thiazol-7-yl)methyl (6-(3-methyl-1H-1,2,4-triazol-1-yl)pyridin-3-yl) carbamate] gave an IC50 of 1.7 nM.
In the case of `COc1cnc2c(-c3nc4c(F)cc5c(c4s3)OC[C@H](COC(=O)Nc3cccnc3)O5)cc(C)cc2n1` [Example 70, (R)-(4-fluoro-2-(2-methoxy-7-methylquinoxalin-5-yl)-7,8-dihydro-[1,4]dioxino[2′,3′:3,4]benzo[1,2-d]thiazol-7-yl)methyl pyridin-3-ylcarbamate], the IC50 is reported as 25 nM.
Work on `COc1cnc2c(-c3nc4c(F)cc5c(c4s3)OC[C@H](COC(=O)Nc3ccc(F)nc3)O5)cc(C)cc2n1` [Example 71, (R)-(4-fluoro-2-(2-methoxy-7-methylquinoxalin-5-yl)-7,8-dihydro-[1,4]dioxino[2′,3′:3,4]benzo[1,2-d]thiazol-7-yl)methyl (6-fluoropyridin-3-yl)carbamate] yielded an IC50 of 2.9 nM.
With `COc1cnc2c(-c3nc4c(F)cc5c(c4s3)OC[C@H](COC(=O)Nc3cccc(C#N)c3)O5)cc(C)cc2n1` [Example 72, (R)-(4-fluoro-2-(2-methoxy-7-methylquinoxalin-5-yl)-7,8-dihydro-[1,4]dioxino[2′,3′:3,4]benzo[1,2-d]thiazol-7-yl)methyl (3-cyanophenyl)carbamate] the IC50 was 7.7 nM.
Molecule `COc1cnc2c(-c3nc4c(F)cc5c(c4s3)OC[C@H](COC(=O)Nc3ccncc3)O5)cc(C)cc2n1` [Example 73, (R)-(4-fluoro-2-(2-methoxy-7-methylquinoxalin-5-yl)-7,8-dihydro-[1,4]dioxino[2′,3′:3,4]benzo[1,2-d]thiazol-7-yl)methyl pyridin-4-ylcarbamate] has an IC50 of 12 nM.
Work on `COc1cnc2c(-c3nc4c(C(F)F)cc5c(c4s3)OCC(COC(=O)Nc3ccnc(C)c3)O5)cc(C)cc2n1` (stereo not shown) [Example 74, (4-(difluoromethyl)-2-(2-methoxy-7-methylquinoxalin-5-yl)-7,8-dihydro-[1,4]dioxino[2′,3′:3,4]benzo[1,2-d]thiazol-7-yl)methyl (2-methylpyridin-4-yl)carbamate] yielded an IC50 of 8.6 nM.
For `COc1cnc2c(-c3nc4c(F)cc5c(c4s3)OC[C@H](COC(=O)Nc3ccnc(C)c3)O5)cc(C)cc2n1` [Example 75, (R)-(4-fluoro-2-(2-methoxy-7-methylquinoxalin-5-yl)-7,8-dihydro-[1,4]dioxino[2′,3′:3,4]benzo[1,2-d]thiazol-7-yl)methyl (2-methylpyridin-4-yl)carbamate], the IC50 was 4.9 nM.
